Test results as given in ChEMBL document CHEMBL4393689, “Discovery of fluorescent coumarin-benzo[b]thiophene 1, 1-dioxide conjugates as mitochondria-targeting antitumor STAT3 inhibitors” (Eur J Med Chem, 2019).
Activity calls are given as the source filed them. The calls are words filed in the database; no cut-off is given here.

How the values were obtained:
[1] = tested on: MDA-MB-231; assay: Induction of apoptosis in human MDA-MB-231 cells assessed as necrotic cells at 1 uM incubated for 24 hrs by annexinV-FITC and propidium iodide staining based flow cytometric analysis (reference value: 0.8%); format: functional
[2] = tested on: MDA-MB-231; assay: Induction of apoptosis in human MDA-MB-231 cells incubated for 24 hrs by annexinV-FITC and propidium iodide staining based flow cytometric analysis; format: functional, cell-based
[3] = tested on: MDA-MB-231; assay: Inhibition of colony formation in human MDA-MB-231 cells at 2 uM treated for 24 hrs and measured after 10 to 14 days by crystal violet staining based assay; format: functional
[4] = tested on: MDA-MB-231; assay: Induction of apoptosis in human MDA-MB-231 cells assessed as late apoptotic cells at 2 uM incubated for 24 hrs by annexinV-FITC and propidium iodide staining based flow cytometric analysis (reference value: 1.0%); format: functional
[5] = Drug accumulation in mitochondria of human MDA-MB-231 cells at 2 uM incubated for 60 mins by mitotracker red staining based confocal microscopy; format: ADME; settings: mda-mb-231, 1 h
[6] = tested on: MDA-MB-231; assay: Effect on total STAT3 expression in human MDA-MB-231 cells at 1 to 4 uM incubated for 24 hrs by Western blot analysis; format: ADME, cell-based; settings: mda-mb-231, 24 h
[7] = tested on: HCT-116; assay: Antiproliferative activity against human HCT116 cells assessed as reduction in cell viability incubated for 48 hrs by MTT assay; format: functional, cell-based; settings: HCT-116, 48 h
[8] = tested on: MDA-MB-231; assay: Induction of apoptosis in human MDA-MB-231 cells assessed as necrotic cells at 4 uM incubated for 24 hrs by annexinV-FITC and propidium iodide staining based flow cytometric analysis (reference value: 0.8%); format: functional
[9] = tested on: MDA-MB-231; assay: Induction of apoptosis in human MDA-MB-231 cells assessed as early apoptotic cells at 2 uM incubated for 24 hrs by annexinV-FITC and propidium iodide staining based flow cytometric analysis (reference value: 3.2%); format: functional
[10] = biological target: Signal transducer and activator of transcription 3 (Homo sapiens) (UniProt P40763); assay: Inhibition of STAT3 in human MDA-MB-231 cells assessed as decrease in STAT3 phosphorylation at Tyr705 residue incubated for 24 hrs by Western blot analysis; format: cell-based
Chain of Signal transducer and activator of transcription 3 (Homo sapiens) (P40763 whole entry): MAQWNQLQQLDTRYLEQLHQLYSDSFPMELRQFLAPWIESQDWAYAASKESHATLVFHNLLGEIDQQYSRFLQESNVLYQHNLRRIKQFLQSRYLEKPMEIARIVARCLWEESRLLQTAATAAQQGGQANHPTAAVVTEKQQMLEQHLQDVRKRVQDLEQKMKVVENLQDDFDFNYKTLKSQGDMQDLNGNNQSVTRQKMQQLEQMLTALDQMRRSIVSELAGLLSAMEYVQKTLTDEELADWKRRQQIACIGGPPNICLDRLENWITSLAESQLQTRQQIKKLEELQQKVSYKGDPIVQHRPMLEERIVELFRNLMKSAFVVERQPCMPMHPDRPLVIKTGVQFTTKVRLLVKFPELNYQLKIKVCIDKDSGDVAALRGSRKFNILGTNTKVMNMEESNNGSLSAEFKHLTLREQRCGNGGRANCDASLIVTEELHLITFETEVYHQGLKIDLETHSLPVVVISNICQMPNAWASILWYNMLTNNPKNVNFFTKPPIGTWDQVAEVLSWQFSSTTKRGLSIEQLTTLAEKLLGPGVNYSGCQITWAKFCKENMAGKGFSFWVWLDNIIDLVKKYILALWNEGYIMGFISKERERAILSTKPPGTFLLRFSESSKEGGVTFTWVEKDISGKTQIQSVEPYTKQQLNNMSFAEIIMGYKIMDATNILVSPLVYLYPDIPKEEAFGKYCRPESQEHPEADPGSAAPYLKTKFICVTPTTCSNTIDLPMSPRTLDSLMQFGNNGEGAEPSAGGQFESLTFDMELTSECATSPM

[11] = tested on: HCT-116; assay: Potency index, ratio of IC50 of BTP to ratio of IC50 of compound for antiproliferative activity against human HCT116 cells assessed as reduction in cell viability incubated for 48 hrs by MTT assay; format: functional
[12] = tested on: 4T1; assay: Antitumor activity against mouse 4T1 cells implanted in BALB/c mouse assessed as reduction in tumor weight at 10 mg/kg, ip for 14 days; format: functional; settings: 4T1, ip, 336 h
[13] = tested on: MDA-MB-231; assay: Induction of apoptosis in human MDA-MB-231 cells assessed as increase in cleaved caspase-3 levels at 1 to 4 uM incubated for 24 hrs by Western blot analysis; format: functional, cell-based
[14] = biological target: Signal transducer and activator of transcription 3 (Homo sapiens) (UniProt P40763); assay: Inhibition of STAT3 in human MDA-MB-231 cells assessed as decrease in cyclin D1 protein expression incubated for 24 hrs by Western blot analysis; format: cell-based
[15] = tested on: MDA-MB-231; assay: Induction of apoptosis in human MDA-MB-231 cells assessed as viable cells at 1 uM incubated for 24 hrs by annexinV-FITC and propidium iodide staining based flow cytometric analysis (reference value: 95.1%); format: functional; settings: MDA-MB-231, 24 h, read-out: Activity
[16] = tested on: MDA-MB-231; assay: Induction of apoptosis in human MDA-MB-231 cells assessed as viable cells at 4 uM incubated for 24 hrs by annexinV-FITC and propidium iodide staining based flow cytometric analysis (reference value: 95.1%); format: functional; settings: MDA-MB-231, 24 h, read-out: Activity
[17] = tested on: MDA-MB-231; assay: Induction of apoptosis in human MDA-MB-231 cells assessed as late apoptotic cells at 4 uM incubated for 24 hrs by annexinV-FITC and propidium iodide staining based flow cytometric analysis (reference value: 1.0%); format: functional
[18] = biological target: Proto-oncogene tyrosine-protein kinase Src (Homo sapiens) (UniProt P12931); assay: Inhibition of Src in human MDA-MB-231 cells assessed as reduction in Src phosphorylation at 1 to 4 uM incubated for 24 hrs by Western blot analysis; format: cell-based
Chain of Proto-oncogene tyrosine-protein kinase Src (Homo sapiens) (P12931 2-536 limits assumed): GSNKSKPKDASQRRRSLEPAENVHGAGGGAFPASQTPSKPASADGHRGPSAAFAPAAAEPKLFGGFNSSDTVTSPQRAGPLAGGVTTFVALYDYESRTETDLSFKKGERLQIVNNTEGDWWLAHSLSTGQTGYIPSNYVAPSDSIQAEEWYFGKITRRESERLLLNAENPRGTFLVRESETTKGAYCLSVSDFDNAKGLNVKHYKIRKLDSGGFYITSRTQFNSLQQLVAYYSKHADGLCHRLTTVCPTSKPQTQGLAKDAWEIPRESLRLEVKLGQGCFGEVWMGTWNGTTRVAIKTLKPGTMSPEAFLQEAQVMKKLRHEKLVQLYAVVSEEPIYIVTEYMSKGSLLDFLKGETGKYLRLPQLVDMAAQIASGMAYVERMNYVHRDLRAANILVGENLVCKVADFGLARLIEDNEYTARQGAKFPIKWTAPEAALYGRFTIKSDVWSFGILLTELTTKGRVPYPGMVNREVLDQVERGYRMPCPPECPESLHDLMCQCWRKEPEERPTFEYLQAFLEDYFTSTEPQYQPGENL

[19] = biological target: T1, Signal transducer and activator of transcription 1-alpha/beta (Homo sapiens) (UniProt P42224); assay: Inhibition of STAT1 in human MDA-MB-231 cells assessed as decrease in STAT1 phosphorylation at Y701 residue at 1 to 4 uM incubated for 24 hrs by Western blot analysis; format: cell-based
T1 sequence (whole entry): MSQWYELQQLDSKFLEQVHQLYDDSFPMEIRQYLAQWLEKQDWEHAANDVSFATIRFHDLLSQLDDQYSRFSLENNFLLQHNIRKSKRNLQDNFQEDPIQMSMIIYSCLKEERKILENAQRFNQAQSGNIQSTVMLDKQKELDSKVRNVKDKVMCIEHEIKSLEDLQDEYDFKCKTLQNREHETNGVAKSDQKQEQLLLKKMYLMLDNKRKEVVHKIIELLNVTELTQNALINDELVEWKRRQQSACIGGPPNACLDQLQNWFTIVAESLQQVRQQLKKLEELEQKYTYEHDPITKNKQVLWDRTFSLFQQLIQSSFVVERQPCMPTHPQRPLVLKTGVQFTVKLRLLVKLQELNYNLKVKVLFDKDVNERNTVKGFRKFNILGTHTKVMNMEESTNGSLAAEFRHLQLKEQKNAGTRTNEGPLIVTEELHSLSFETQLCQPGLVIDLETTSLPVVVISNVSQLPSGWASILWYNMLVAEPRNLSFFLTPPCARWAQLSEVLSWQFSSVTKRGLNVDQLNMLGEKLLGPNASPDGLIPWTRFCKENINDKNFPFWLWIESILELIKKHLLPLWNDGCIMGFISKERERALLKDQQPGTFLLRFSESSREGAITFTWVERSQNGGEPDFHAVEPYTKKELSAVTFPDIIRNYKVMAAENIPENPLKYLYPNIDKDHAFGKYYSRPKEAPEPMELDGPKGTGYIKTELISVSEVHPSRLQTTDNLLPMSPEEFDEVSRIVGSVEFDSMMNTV

[20] = tested on: 4T1; assay: Antitumor activity against mouse 4T1 cells implanted in BALB/c mouse assessed as reduction in tumor volume at 20 mg/kg, ip for 14 days; format: functional; settings: 4T1, ip, 336 h
[21] = tested on: MDA-MB-231; assay: Induction of apoptosis in human MDA-MB-231 cells assessed as viable cells at 2 uM incubated for 24 hrs by annexinV-FITC and propidium iodide staining based flow cytometric analysis (reference value: 95.1%); format: functional; settings: MDA-MB-231, 24 h, read-out: Activity
[22] = tested on: MDA-MB-231; assay: Induction ROS accumulation in human MDA-MB-231 cells after 24 hrs by DCFH-DA staining-based flow cytometric analysis; format: functional, cell-based
[23] = Drug accumulation in mitochondria of human MCF7 cells at 5 uM incubated for 60 mins by mitotracker red staining based confocal microscopy; format: ADME; settings: mcf7, 1 h
[24] = Selectivity index, ratio of IC50 for human L02 cells to IC50 for human HepG2 cells; format: toxicity; settings: L02 cells versus HepG2 cells, read-out: Ratio IC50
[25] = biological target: Signal transducer and activator of transcription 3 (Homo sapiens) (UniProt P40763); assay: Inhibition of STAT3 in human MDA-MB-231 cells assessed as decrease in Bcl2 protein expression incubated for 24 hrs by Western blot analysis; format: cell-based
[26] = tested on: L02; assay: Cytotoxicity against human LO2 cells assessed as reduction in cell viability incubated for 48 hrs by MTT assay; format: cell-based; settings: L02, 48 h

For `CCN(CC)c1ccc2cc(C(=O)N3CCN(C(=O)C4=Cc5c(Br)cccc5S4(=O)=O)CC3)c(=O)oc2c1`, the Activity [1] was 1.3%, the Activity [2] was “Dose-dependent effect” and the inhibition at 2 µM [3] was 100%. For the same compound, the Activity [4] was 1.8%, the Drug uptake [5] was “Active” and the Activity [6] was “Non-Toxic”. The IC50 [7] was 1.89 µM, the Activity [8] was 2.1% and the Activity [9] was 7.4%. The inhibition [10] was “Dose-dependent effect”, the “Ratio IC50” value [11] was 4.6 - 19 and the inhibition in vivo at 10 mg/kg [12] was 39.7%. For the same compound, the Activity [13] was “Active”, the inhibition [14] was “Dose-dependent effect” and the viability at 1 µM [15] was 92%. For the same compound, the viability at 4 µM [16] was 77.5%, the Activity [17] was 4.8% and the inhibition [18] was “inactive”. For the same compound, the inhibition [19] was “inactive”, the inhibition in vivo at 20 mg/kg [20] was 61.2% and the viability at 2 µM [21] was 89.3%. For the same compound, the Activity [22] was “Dose-dependent effect”, the Drug uptake [23] was “Active” and the selectivity ratio [24] was 12.4. The inhibition [25] was “Dose-dependent effect” and the IC50 [26] was 35.6 µM.
